# Measurements from patent publication US9233127B2, “Compositions and methods for CXCR4 signaling and umbilical cord blood stem cell engraftment” (University of Virginia Patent Foundation, priority 2012, dated 2016).
# “Also recorded” adds a separate entry of the source.
# Tests used:
# [1] = test system: murine BMNCs and CFU-GM progenitor cells; assay: Migration of murine BMNCs and CFU-GM progenitors to SDF-1 gradient after cationic peptide priming; format: cell-based
# Procedure: FIG. 8A-B—A) BM mononuclear cell and B) CFU-GM migration in response to an SDF-1 gradient after priming with LL-37 or hBD-2. Values are fold increases of migrated cells compared to media alone.
# FIG. 17A-B—Cationic peptides released from granulocytes enhance responsiveness of HSPCs to SDF-1 gradient. […] Values are the fold increases of migrated cells compared to media alone. M, media alone; SDF-1 (L), 50 ng/ml; SDF-1 (H), 300 ng/ml; C3a, 1 μg/ml. * P<0.05 as compared with SDF-1 (50 ng/ml) alone. The data shown represent the combine results from four independent experiments carried out in triplicate per group (n=12).
# We also evaluated the effect of complement fragment 5a (C5a). […] After leaving the BM, granulocytes undergo degranulation in response to plasma C5a and secrete cationic peptides, such as cathelicidin (LL-37) and β-defensin-2 (hBD-2). […] It was hypothesized that this response may be affected by the distribution of membrane lipids by cationic peptides. […] Direct confocal analysis of CXCR4 and lipid raft colocalization in the presence or absence of cationic peptides confirmed these findings.
# [2] = test system: syngeneic BM mononuclear cells; assay: Murine BM transplant with BM mononuclear cells exposed ex vivo to LL-37; format: in vivo; details: BM exposed ex vivo 30 minutes; lethally irradiated recipients
# Procedure: Leukophoresis products enriched in activated granulocytes release hBD-2 and LL-37. The question was whether this might explain why mobilized peripheral blood hematopoietic progenitors engrafts substantially faster relative to marrow. We therefore performed studies in a murine BM transplant model where syngeneic BM mononuclear cells were exposed ex vivo to LL-37 for 30 minutes and subsequently transplanted into lethally irradiated recipients. […] On the basis of these findings, this represents a second strategy for reducing the period of neutropenia in recipients of UCB
# CXCR4 = assay: Western blot of CXCR4 in lipid raft membrane fractions, cationic peptides (Nalm-6); format: cell-based, human
# Procedure: FIG. 18A-B—Priming effect of cationic peptides is dependent on enhanced incorporation of CXCR4 into lipid rafts. (A) Western blot analysis of the localization of CXCR4 in various fractions of cell membranes. Membranes enriched in lipid rafts (fractions 3-5) and depleted of lipid rafts (fractions 9-11). Human pre-B cell line, Nalm-6, was stimulated with […] β2-defensin (hBD-2) (250 ng/ml) or was not stimulated (control). CXCR4 was detected in these membrane fractions by Western blot along with Lyn, a marker of lipid rafts. Experiments were performed three times with similar results. (B) LL-37-induced enhancement of THP-1 cell migration to SDF-1 gradient was inhibited by 1 h pretreatment with MβCD (1.0 or 2.5 mM). * P<0.05 as compared with migration of control cells in the absence of LL-37 (2.5 μg/ml). Lipid raft formation was analyzed. Shown are representative of three independent experiment carried out in triplicate per group. The data shown represent the combine results from four independent experiments carried out in triplicate per group (n=12).
# Since enhanced responsiveness of HSPCs to SDF-1 gradient in the presence of C3a (priming effect) is mediated by incorporation of CXCR4 into membrane lipid rafts, we tested if similar phenomenon is responsible for LL-37 or β2D-dependent priming. […]
substance,measurement,setting,value
"LL-37: active fragment of cathelicidin; recombinant cationic peptide released from granulocytes (LLGDFFRKSKEKIGKEFKRIVQRIKDFLRNLVPRTES; Antibacterial peptide LL-37; UniProt P49913 134-170, looked up)",priming effect compared with that described for C3a,[1],several times higher
same,responsiveness of hematopoietic progenitors to plasma SDF-1 (priming effect),[1],highly enhanced
same,migration of CFU-GM progenitor cells in response to SDF-1 gradient,[1]; SDF-1 50 ng/ml,enhance/prime migration; also recorded: strongly enhanced
same,migration of murine BMNCs in response to SDF-1 gradient,[1]; SDF-1 50 ng/ml,enhance/prime migration; also recorded: strongly enhanced
same,chemotactic activity alone,[1]; without SDF-1,do not show chemotactic activity
same,accelerated recovery of platelets and neutrophils compared to unprimed control cells,[2],3 to 5 days
same,incorporation of CXCR4 into membrane lipid rafts,CXCR4,increase incorporation of CXCR4
